Like-named read-outs stand apart in the source and are kept apart here.
How the values were obtained:
P. aeruginosa ATCC 27853 = test: MIC, other bacteria (Table 3); format: cell-based; settings: Pseudomonas aeruginosa, ATCC27853, inoculum size 10^6 CFU/ml, read-out: MIC
MRSE 2442-05030 = test: MIC, other bacteria (Table 3); format: cell-based, S. epidermidis; settings: Staphylococcus epidermidis, inoculum size 10^6 CFU/ml, read-out: MIC
MRSE 2442-05118 = test: MIC, other bacteria (Table 3); format: cell-based, S. epidermidis; settings: Staphylococcus epidermidis, inoculum size 10^6 CFU/ml, read-out: MIC
MRSA 2441-05129 = test: MIC, other bacteria (Table 3); format: cell-based, S. aureus; settings: Staphylococcus aureus, inoculum size 10^6 CFU/ml, read-out: MIC
VRSA 2441-T0044 = test: MIC, other bacteria (Table 3); format: cell-based, S. aureus; settings: Staphylococcus aureus, VRSA
MRSE 2442-05047 = test: MIC, other bacteria (Table 3); format: cell-based, S. epidermidis; settings: Staphylococcus epidermidis, inoculum size 10^6 CFU/ml, read-out: MIC
[1] = tested on: E. faecalis NCTC 12201 (VRE); test: MIC, other bacteria (Table 3); format: cell-based; settings: Enterococcus faecalis, high level VCM-resistant, Van A, inoculum size 10^6 CFU/ml, read-out: MIC
[2] = tested on: E. faecalis ATCC 51299 (VRE); test: MIC, other bacteria (Table 3); format: cell-based; settings: Enterococcus faecalis, low level VCM-resistant, Van B, inoculum size 10^6 CFU/ml, read-out: MIC
MRSE 2442-05110 = test: MIC, other bacteria (Table 3); format: cell-based, S. epidermidis; settings: Staphylococcus epidermidis, inoculum size 10^6 CFU/ml, read-out: MIC
S. aureus ATCC 29213 = test: MIC, other bacteria (Table 3); format: cell-based; settings: Staphylococcus aureus, ATCC29213, inoculum size 10^6 CFU/ml, read-out: MIC
[3] = tested on: S. epidermidis ATCC 12228; test: MIC, other bacteria (Table 3); format: cell-based; settings: Staphylococcus epidermidis, ATCC12228, inoculum size 10^6 CFU/ml, read-out: MIC
MRSA 2441-05254 = test: MIC, other bacteria (Table 3); format: cell-based, S. aureus; settings: Staphylococcus aureus, inoculum size 10^6 CFU/ml, read-out: MIC
VRSA 2441-T0041 = test: MIC, other bacteria (Table 3); format: cell-based, S. aureus; settings: Staphylococcus aureus
P. mirabilis ATCC 4630 = test: MIC, other bacteria (Table 3); format: cell-based; settings: Proteus mirabilis, ATCC4630, inoculum size 10^6 CFU/ml, read-out: MIC
E. coli ATCC 25922 = test: MIC, other bacteria (Table 3); format: cell-based; settings: Escherichia coli, ATCC25922, inoculum size 10^6 CFU/ml, read-out: MIC
MRSA 2441-05104 = test: MIC, other bacteria (Table 3); format: cell-based, S. aureus; settings: Staphylococcus aureus, inoculum size 10^6 CFU/ml, read-out: MIC
MRSA 2441-05262 = test: MIC, other bacteria (Table 3); format: cell-based, S. aureus; settings: Staphylococcus aureus, inoculum size 10^6 CFU/ml, read-out: MIC
[4] = tested on: E. faecium NCTC 12203 (VRE); test: MIC, other bacteria (Table 3); format: cell-based; settings: Enterococcus faecium, high level VCM-resistant, Van A, inoculum size 10^6 CFU/ml, read-out: MIC
MRSE 2442-05053 = test: MIC, other bacteria (Table 3); format: cell-based, S. epidermidis; settings: Staphylococcus epidermidis, inoculum size 10^6 CFU/ml, read-out: MIC
MRSE 2442-05060 = test: MIC, other bacteria (Table 3); format: cell-based, S. epidermidis; settings: Staphylococcus epidermidis, inoculum size 10^6 CFU/ml, read-out: MIC
S. marsascens ATCC 14756 = test: MIC, other bacteria (Table 3); format: cell-based; settings: inoculum size 10^6 CFU/ml, read-out: MIC
MRSA 2441-05112 = test: MIC, other bacteria (Table 3); format: cell-based, S. aureus; settings: Staphylococcus aureus, inoculum size 10^6 CFU/ml, read-out: MIC
[5] = tested on: S. aureus ATCC 43300 (MRSA); test: MIC, other bacteria (Table 3); format: cell-based; settings: Staphylococcus aureus, inoculum size 10^6 CFU/ml, read-out: MIC
K. pneumoniae ATCC 27736 = test: MIC, other bacteria (Table 3); format: cell-based; settings: Klebsiella pneumoniae, ATCC27736, inoculum size 10^6 CFU/ml, read-out: MIC
E. faecalis ATCC 29212 = test: MIC, other bacteria (Table 3); format: cell-based; settings: Enterococcus faecalis, ATCC29212, inoculum size 10^6 CFU/ml, read-out: MIC
E. faecium ATCC 49224 = test: MIC, other bacteria (Table 3); format: cell-based; settings: Enterococcus faecium, ATCC49224; E. faecium ATCC 49224, GM-resistant; inoculum size 10^6 CFU/ml; read-out: MIC
MRSA 2441-05223 = test: MIC, other bacteria (Table 3); format: cell-based, S. aureus; settings: Staphylococcus aureus, inoculum size 10^6 CFU/ml, read-out: MIC
M. avium Flamingo = test: MIC, agar (7H11) dilution method; format: cell-based; settings: Mycobacterium avium, read-out: Minimum inhibitory concentrations (MIC)
M. bovis BCG Tokyo = test: microbe, parasite or virus in culture; format: cell-based; settings: Mycobacterium tuberculosis variant bovis BCG, BCG, read-out: Minimum inhibitory concentrations (MIC)
M. fortuitum NIHJ1615 = test: MIC, agar (7H11) dilution method; format: cell-based; settings: Mycolicibacterium fortuitum, read-out: Minimum inhibitory concentrations (MIC)
M. tuberculosis H37Rv = test: MIC, agar (7H11) dilution method; format: cell-based; settings: Mycobacterium tuberculosis, H37RV
M. smegmatis Takeo = test: MIC, agar (7H11) dilution method; format: cell-based; settings: Mycolicibacterium smegmatis, read-out: Minimum inhibitory concentrations (MIC)
M. aurum = test: MIC, agar (7H11) dilution method; format: cell-based; settings: Mycolicibacterium aurum, read-out: Minimum inhibitory concentrations (MIC)
M. kansasii NIHJ1619 = test: MIC, agar (7H11) dilution method; format: cell-based; settings: Mycobacterium kansasii, read-out: Minimum inhibitory concentrations (MIC)
M. tuberculosis Kurono = test: MIC, agar (7H11) dilution method; format: cell-based; settings: Mycobacterium tuberculosis, read-out: Minimum inhibitory concentrations (MIC)
[6] = tested on: M. intracellularae ATCC 15984; test: MIC, agar (7H11) dilution method; format: cell-based; settings: read-out: Minimum inhibitory concentrations (MIC)

Measured: MIC

CC1COc2c(N3CCN(C)CC3)c(F)cc3c(=O)c(C(=O)O)cn1c23 (stereo not drawn) [OFLX, ofloxacin, reference compound]
3.13 µg/mL: P. aeruginosa ATCC 27853 | [4] | E. faecium ATCC 49224
0.39 µg/mL: P. mirabilis ATCC 4630 | [5]
0.05 µg/mL: E. coli ATCC 25922
1 µg/mL: MRSA 2441-05129
6.25 µg/mL: MRSE 2442-05030 | MRSE 2442-05118 | MRSE 2442-05047 | MRSE 2442-05110 | MRSE 2442-05053 | MRSE 2442-05060
1.56 µg/mL: [1] | [2] | E. faecalis ATCC 29212
0.024 µg/mL: S. marsascens ATCC 14756
1.25 µg/mL: VRSA 2441-T0044 | VRSA 2441-T0041; VRSA
25 µg/mL: MRSA 2441-05104
0.2 µg/mL: S. aureus ATCC 29213 | [3] | K. pneumoniae ATCC 27736 | MRSA 2441-05223
50 µg/mL: MRSA 2441-05254 | MRSA 2441-05262 | MRSA 2441-05112

C=CCN(C)CCCCCCCCOc1ccc(C(=O)c2ccc(Cl)cc2)c(O)c1 [Cpd #22, (4-(8-(allyl(methyl)amino)octyloxy)-2-hydroxyphenyl)(4-chlorophenyl)methanone]
50 µg/mL: MRSA 2441-05129 | MRSA 2441-05254 | E. coli ATCC 25922
6.25 µg/mL: M. avium Flamingo | M. aurum | M. kansasii NIHJ1619 | [4] | [6]
> 100 µg/mL: P. aeruginosa ATCC 27853 | P. mirabilis ATCC 4630 | S. marsascens ATCC 14756 | K. pneumoniae ATCC 27736
12.5 µg/mL: MRSE 2442-05030 | M. fortuitum NIHJ1615 | MRSE 2442-05118 | MRSE 2442-05047 | [1] | [2] | M. smegmatis Takeo | MRSE 2442-05110 | [3] | MRSE 2442-05053 | MRSE 2442-05060 | E. faecalis ATCC 29212 | E. faecium ATCC 49224
1.56 µg/mL: M. tuberculosis H37Rv; read-out: Minimum inhibitory concentrations (MIC), M. tuberculosis H37Rv, table line r7 (1st of 5 so labelled) | M. tuberculosis H37Rv; read-out: Minimum inhibitory concentrations (MIC), M. tuberculosis H37Rv, table line r8 (2nd of 5 so labelled) | M. tuberculosis H37Rv; read-out: Minimum inhibitory concentrations (MIC), M. tuberculosis H37Rv, table line r9 (3rd of 5 so labelled) | M. tuberculosis H37Rv; read-out: Minimum inhibitory concentrations (MIC), M. tuberculosis H37Rv, table line r10 (4th of 5 so labelled) | M. tuberculosis Kurono
3.13 µg/mL: M. bovis BCG Tokyo | M. tuberculosis H37Rv; read-out: Minimum inhibitory concentrations (MIC), M. tuberculosis H37Rv, table line r11 (5th of 5 so labelled)
25 µg/mL: S. aureus ATCC 29213 | VRSA 2441-T0041; VRSA 2441-T0041, low level VCM-resistant, inoculum size 10^6 CFU/ml, read-out: MIC | MRSA 2441-05104 | MRSA 2441-05262 | MRSA 2441-05112 | [5] | MRSA 2441-05223
